What was measured:
[1] = test system: PIK3CA mutant and WT breast cancers; assay: Retrospective PFS analysis on endocrine therapy (aromatase inhibitor or fulvestrant); type: in vivo, human
Procedure: (§1) Retrospective PFS analysis was performed on tumors from a large breast cancer dataset (n=1918) sequenced by MSK-IMPACT ((Razavi et al., Cancer Cell 34, 427-438 e426 (2018)). Tumors were included in analysis if both pre- and post-endocrine therapy (aromatase inhibitor or fulvestrant) biopsies confirmed WT, single PIK3CA mutation, or multiple PIK3CA mutations. Kaplan-Meier curves were generated for PFS after firstline aromatase inhibitor or firstline fulvestrant therapy. PFS analysis was performed on patients enrolled in NCT01870505, a phase 1 clinical trial of alpelisib plus letrozole or exemestane for patients with hormone-receptor positive locally-advanced unresectable or metastatic breast cancer. 46/51 patients had biopsy samples that confirmed PIK3CA mutant or WT alleles by tumor NGS, and these 46 patients were included in the final analysis.

[2] = biological target: p85α regulatory subunit of PI3Kα (PIK3R1), full length human, hexahistidine-tagged at the N-terminus (UniProt P27986)
[3] = test system: metastatic ER-positive PIK3CA mutant breast cancer; assay: […] phase III clinical trial of taselisib with fulvestrant, ctDNA PIK3CA analysis; type: in vivo, human; settings: for overall response rate: taselisib arm (with fulvestrant)
From the text: The present disclosure investigated the effects of multiple PIK3CA mutations on clinical response to PI3Kα inhibitors in metastatic breast cancer. The present disclosure analyzed response data from […], a phase III registrational clinical trial that tested the efficacy of the PI3Kα inhibitor taselisib (GDC-0032), with fulvestrant (an estrogen receptor [ER] degrader) in metastatic ER-positive PIK3CA mutant breast cancer. This is the largest randomized clinical study testing a PI3Kα inhibitor (631 patients).
Many patients with metastatic ER-positive breast cancer enrolled in this trial had bone metastases, which must be decalcified to be analyzed by NGS, which render DNA sequencing particularly challenging (Singh et al., Ann Diagn Pathol 17, 322-326 (2013)). Thus, the present disclosure used circulating tumor DNA (ctDNA), which has been utilized in many breast cancer clinical trials (Baselga et al., Lancet Oncol 18, 904-916 (2017); Andre et al., N Engl J Med 380, 1929-1940 (2019); Baselga et al., N Engl J Med 366, 520-529 (2012); Turner et al., N Engl J Med 373, 209-219 (2015)), to detect the presence of multiple mutations. Of the 631 patients on the trial, 598 had plasma samples available for analysis, of which 508 were adequate for testing (FIG. 19A). Samples were tested using the Foundation One liquid assay, which sequences the entire PIK3CA gene. Of the 339 patients with detected PIK3CA mutations, 66 (19%) had 2 or more PIK3CA mutations.
For analysis of the […] clinical trial (Baselga, Journal of Clinical Oncology, 2018, 36, no. 18_suppl.) patient ctDNA samples (n=631), 508 patient samples met quality control parameters and were analyzed by Foundation Medicine One Liquid assay (Clark et al., J Mol Diagn 20, 686-702 (2018)) which sequences […] of PIK3CA and can detect mutations at amino acid positions 545, 1047, 453, 726, and 1043 (FIG. 24). 339 samples were identified with PIK3CA mutations, of which 66 contained two or more PIK3CA mutations. Patients with measurable disease from the ctDNA PIK3CA mutant cohort, on the taselisib arm, were analyzed based on the percentage change in the sum of longest diameter (SLD) of target lesion from baseline, and were tabulated by waterfall plot. Patients with both measurable and nonmeasurable disease from the ctDNA PIK3CA mutant cohort were assessed on the placebo and taselisib arms for overall response rate (defined as tumor shrinkage >30%). 95% CI for rates were constructed using the Blyth-Still-Casella method. The CI for the difference in ORRs between the two treatment arms were determined using the normal approximation to the binomial distribution. Response rates in the treatment arms were compared (p-value) using the stratified Cochran-Mantel-Haenszel test.

[4] = test system: PI3K pathway signaling in PIK3CA mutant NIH-3T3 cells; assay: Western blotting of PI3K effectors, NIH-3T3 cells; type: cell-based, mouse; settings: BYL719 1 μM, 24 hours, serum starvation, vs single mutant cells
[5] = test system: ER+ metastatic breast cancer; assay: Phase 1 clinical trial NCT01870505 of alpelisib (BYL719) plus aromatase inhibitor, PFS analysis; type: in vivo, human; settings: with an aromatase inhibitor; for progression free survival: tumor NGS (FIG. 18C); for PFS (duration of response to PI3K inhibition): tumor and ctDNA NGS (FIG. 17E)
Procedure: Progression-free survival analysis was performed on patients enrolled in NCT01870505, a phase I clinical trial of BYL719 (alpelisib) plus letrozole or exemestane for patients (n=51) with hormone-receptor positive locally-advanced unresectable or metastatic breast cancer. 44/51 patients were analyzed for NGS of their tumors (MSK-IMPACT) and/or NGS of their ctDNA (Guardant) and were included in the analysis. Progression free survival was calculated and was compared between dual and single mutant patients. Clinical benefit rates (complete response, partial response or stable disease) were calculated and were compared between dual and single mutant patients using Fisher's exact test.
as §1

[6] = test system: PI3K pathway signaling in PIK3CA mutant MCF10A cells; assay: Western blotting of PI3K effectors, MCF10A cells; settings: BYL719 1 μM, 24 hours, serum starvation, vs single mutant cells
[7] = test system: recombinant single and cis mutant PI3Kα complexes; assay: IC50 determination of recombinant PI3K (Transcreener ADP2 fluorescence intensity assay); settings: among the recombinant single and cis mutant PI3Kα complexes
[8] = test system: PIK3CA mutant MCF10A cells; assay: Cell viability / cell inhibition by PI3K inhibitors (CellTiter-Glo, dose-response survival); settings: for sensitivity of cell growth to PI3Kα inhibition: E545K and H1047R major hotspot mutants compared to minor mutants and WT

Sequence of p85α regulatory subunit of PI3Kα (PIK3R1), full length human, hexahistidine-tagged at the N-terminus (P27986 whole entry, looked up, tested part not stated): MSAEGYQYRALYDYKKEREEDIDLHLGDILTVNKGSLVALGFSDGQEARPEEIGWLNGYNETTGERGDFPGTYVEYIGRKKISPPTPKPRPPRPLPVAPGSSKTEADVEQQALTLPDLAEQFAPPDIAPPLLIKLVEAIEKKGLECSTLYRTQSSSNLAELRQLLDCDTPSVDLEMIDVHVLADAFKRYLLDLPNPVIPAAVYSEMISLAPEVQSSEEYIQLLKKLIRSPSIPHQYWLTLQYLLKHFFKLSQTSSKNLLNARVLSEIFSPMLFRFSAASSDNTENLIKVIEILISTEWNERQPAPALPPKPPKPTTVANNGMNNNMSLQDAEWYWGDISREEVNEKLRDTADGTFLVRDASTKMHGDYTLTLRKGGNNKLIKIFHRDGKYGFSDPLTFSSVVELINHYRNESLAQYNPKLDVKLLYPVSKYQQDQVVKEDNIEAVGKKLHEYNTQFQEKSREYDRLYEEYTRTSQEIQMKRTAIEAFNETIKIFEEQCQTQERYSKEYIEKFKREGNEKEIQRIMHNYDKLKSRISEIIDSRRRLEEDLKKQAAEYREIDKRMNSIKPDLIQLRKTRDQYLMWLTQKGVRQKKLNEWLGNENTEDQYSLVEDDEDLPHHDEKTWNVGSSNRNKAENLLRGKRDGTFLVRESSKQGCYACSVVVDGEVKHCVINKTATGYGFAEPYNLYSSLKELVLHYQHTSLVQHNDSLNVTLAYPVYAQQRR

For `C[C@]12CC[C@@H]3c4ccc(O)cc4C[C@@H](CCCCCCCCC[S+]([O-])CCCC(F)(F)C(F)(F)F)[C@H]3[C@@H]1CC[C@@H]2O` (stereo partly drawn) [fulvestrant], the “PFS of dual mutant patients vs patients with WT tumors” value ([1]; fulvestrant) was “worse PFS” and the “PFS of patients with dual PIK3CA-mutant tumors vs single mutant or WT tumors” value ([1]; fulvestrant alone) was “do not have improved”.
“p110α E545K, untagged, full length human” was tested, and the “thermal shift assay (soluble p110α by Western blot across a temperature gradient)” value [2] was “Among single mutants, E545K is the most thermally unstable”.
For `Cc1nc(-c2cn3c(n2)-c2ccc(-c4cnn(C(C)(C)C(N)=O)c4)cc2OCC3)n(C(C)C)n1` [taselisib], the overall response rate ([3]; ctDNA PIK3CA mutant total population) was 20.3%, the overall response rate ([3]; multiple ctDNA PIK3CA mutant subpopulation) was 30.2% and the overall response rate ([3]; single ctDNA PIK3CA mutant subpopulation) was 18.1%. The “tumor shrinkage, multiple vs single mutant tumors” value ([3]; taselisib arm, waterfall plot (FIG. 19B)) was “tumor shrinkage more”.
For `Cc1nc(NC(=O)N2CCC[C@H]2C(N)=O)sc1-c1ccnc(C(C)(C)C(F)(F)F)c1` [alpelisib], the “compound mutant PI3K pathway signaling on PI3K inhibition” value [4] was “decreases to similar levels”, the progression free survival ([5]; WT PIK3CA tumors) was 7.5 weeks and the progression free survival ([5]; double PIK3CA mutant tumors) was 48 weeks. For the same compound, the “PFS (duration of response to PI3K inhibition)” value ([5]; dual PIK3CA mutant patients) was 48 weeks, the “patients with clinical benefit rate >30 weeks” value ([5]; dual mutant tumors, p=0.044 vs single) was 67% and the “PFS (duration of response to PI3K inhibition)” value ([5]; single PIK3CA mutant patients) was 17 weeks. For the same compound, the progression free survival ([5]; single PIK3CA mutant tumors) was 20 weeks, the “patients with clinical benefit rate >30 weeks” value ([5]; single mutant tumors) was 23% and the “median PFS, double mutant vs single mutant or WT tumors” value ([5]; not statistically significant) was “longer median PFS”. The “compound mutant PI3K pathway signaling on PI3K inhibition” value [6] was “decreases to similar levels”, the “IC50 values, recombinant PI3Kα complexes” value [7] was “similar” and the cell viability ([8]; Example 1, compound PIK3CA mutants vs single mutants) was “more significant decrease in cell viability”. The “sensitivity of mutations in trans” value ([8]; MCF10A E726K/H1047R in trans compared to cis mutants) was “less sensitive”, the “sensitivity of mutations in trans” value ([8]; MCF10A E726K/H1047R in trans compared to the single major mutant) was “no more sensitive” and the “sensitivity of cell growth to PI3Kα inhibition” value ([8]; MCF10A) was “more sensitive”. The “fold of inhibition of cell growth” value ([8]; MCF10A, E545K- and H1047R-containing compound mutants vs single mutants) was “increased fold of inhibition”.
With `CO[C@H]1C[C@@H]2CC[C@@H](C)[C@@](O)(O2)C(=O)C(=O)N2CCCC[C@H]2C(=O)O[C@H]([C@H](C)C[C@@H]2CC[C@@H](OCCO)[C@H](OC)C2)CC(=O)[C@H](C)/C=C(\C)[C@@H](O)[C@@H](OC)C(=O)[C@H](C)C[C@H](C)/C=C/C=C/C=C/1C` [everolimus] the “sensitivity to downstream PI3K pathway inhibitor” value ([8]; MCF10A, cis mutants compared to single mutants, serum starvation 4 days) was “more sensitive”.
In the case of `C[C@H](Nc1ccc2c(c1)OCCn1cc(N3C(=O)OC[C@H]3C(F)F)nc1-2)C(N)=O` [GDC-0077], the “IC50 values, recombinant PI3Kα complexes” value [7] is reported as “similar”, the “sensitivity of cell growth to PI3Kα inhibition” value ([8]; MCF10A) is reported as “more sensitive” and the IC50 ([8]; read-out: IC50 [GDC-0077] of MCF10A E545K cells, MCF10A E545K cells, per FIG. 6G) is reported as 62.5 nM.

— patent US20210189503A1, “BIOMARKERS FOR DETERMINING RESPONSIVENESS OF A CANCER TO PI3K INHIBITORS” (MEMORIAL SLOAN-KETTERING CANCER CENTER, priority 2018, published 2021)
